# Read-outs that look alike come from different tables or passages of the source.
# System: cancer cell lines from the cancer cell line encyclopedia (CCLE)
# Assay: Cell line profiling (CLiP) proliferation experiment
# Format: cell-based
# Settings: Homo sapiens; for IC50: read-out: Crossing Point; for EC50: read-out: Inflection Point
# Protocol: Compound profiling experiment and data analysis was performed as previously described. Data was imported and plotted using the Tibco Spotfire DXP application. Lines were categorized as sensitive, intermediate and refractory as follows: Amax<-40 & Inflection Point <2 ~ Sensitive, Amax>-20 & Inflection Point >10 ~ Refractory, all else were called Intermediate. Cancer Cell line HG-U133 Plus 2 data was processed and normalized as described. […] Five sets of refractory cell lines were generated from the pool of refractory cell lines trying to match the lineage composition of the set of sensitive cell lines. The limma package was used as previously described to perform the statistical comparison.
# [1] = HCC1187, cell line HCC1187, breast
# [2] = HCC1954, cell line HCC1954, breast
# [3] = HCT-15, cell line HCT-15, large_intestine
# [4] = HCT-116, cell line HCT 116, large_intestine
# [5] = HEC-1-A, cell line HEC-1-A, endometrium
# [6] = HPBALL, cell line HPB-ALL, haematopoietic_and_lymphoid_tissue
# [7] = Hs 294T, cell line Hs 294T, skin
# [8] = Hs 695T, cell line Hs 695T, skin
smiles,measurement,setting,value
CC(C)[C@@]12C[C@@H](O)[C@@](C)(O1)[C@@H]1CC[C@@H](C)[C@H]1[C@@H]2OC(=O)/C=C/c1ccccc1 [Englerin B],IC50,"HCC1143, cell line HCC1143",> 30 µM
same,IC50,[1],13.8 µM
same,EC50,[1],8.08 µM
same,IC50,"HCC1395, cell line HCC1395, breast",> 30 µM
same,IC50,"HCC1395, cell line HCC1395",> 30 µM
same,IC50,"HCC1419, cell line HCC1419, breast",25.1 µM
same,IC50,"HCC1428, cell line HCC1428, breast",> 30 µM
same,IC50,"HCC1428, cell line HCC1428",> 30 µM
same,IC50,"HCC1569, cell line HCC1569, breast",28.7 µM
same,IC50,"HCC1806, cell line HCC1806, breast",> 30 µM
same,IC50,"HCC1806, cell line HCC1806",> 30 µM
same,IC50,"HCC1937, cell line HCC1937, breast",28.9 µM
same,IC50,[2],13.9 µM
same,EC50,[2],11.3 µM
same,EC50,"HCC1954, cell line HCC1954",11.3 µM
same,IC50,"HCC2218, cell line HCC2218, breast",> 30 µM
same,IC50,"HCC2218, cell line HCC2218",> 30 µM
same,IC50,[3],> 30 µM
same,EC50,[3],10.4 µM
same,IC50,"HCT-15, cell line HCT-15",> 30 µM
same,IC50,[4],> 30 µM
same,EC50,[4],8.15 µM
same,IC50,"HCT-116, cell line HCT 116",> 30 µM
same,IC50,[5],> 30 µM
same,EC50,[5],16.7 µM
same,IC50,"HEC-1-A, cell line HEC-1-A",> 30 µM
same,IC50,"HEL 92.1.7, cell line HEL 92.1.7, haematopoietic_and_lymphoid_tissue",23.8 µM
same,IC50,"HGC-27, cell line HGC-27, stomach",10.9 µM
same,IC50,"HMCB, cell line HMCB, skin",> 30 µM
same,EC50,"HMCB, cell line HMCB, skin",18.8 µM
same,IC50,"HMCB, cell line HMCB",> 30 µM
same,EC50,"HMCB, cell line HMCB",18.8 µM
same,IC50,"HPBALL, cell line HPB-ALL (haematopoietic_and_lymphoid_tissue, acute_lymphoblastic_T_cell_leukaemia)",17.5 µM
same,IC50,[6],17.5 µM
same,EC50,[6],11.7 µM
same,IC50,"HRT-18, cell line HRT-18, large_intestine",20.1 µM
same,IC50,"HT55, cell line HT55, large_intestine",> 30 µM
same,IC50,"HT55, cell line HT55",> 30 µM
same,IC50,"HT-29, cell line HT-29, large_intestine",19 µM
same,IC50,"HT-144, cell line HT-144, skin",> 30 µM
same,IC50,"HT-144, cell line HT-144",> 30 µM
same,IC50,"HT-1080, cell line HT-1080, soft_tissue",> 30 µM
same,IC50,"HT-1080, cell line HT-1080",> 30 µM
same,IC50,"HT-1376, cell line HT-1376, urinary_tract",> 30 µM
same,IC50,"HT-1376, cell line HT-1376",> 30 µM
same,IC50,[7],> 30 µM
same,EC50,[7],22.6 µM
same,IC50,"Hs 294T, cell line Hs 294T",> 30 µM
same,IC50,[8],> 30 µM
same,EC50,[8],21.6 µM
same,IC50,"Hs 695T, cell line Hs 695T",> 30 µM
same,IC50,"Hs-578T, cell line Hs 578T, breast",> 30 µM
same,IC50,"Hs-578T, cell line Hs 578T",> 30 µM
same,IC50,"HuH-1, cell line huH-1, liver",> 30 µM
same,EC50,"HuH-1, cell line huH-1, liver",7.57 µM
same,IC50,"HuH-1, huH-1 (liver)",> 30 µM
same,IC50,"HuP-T3, cell line HUP-T3, pancreas",> 30 µM
same,IC50,"HuP-T3, cell line HUP-T3",> 30 µM
same,IC50,"IGR-1, IGR-1 cells",> 30 µM
same,IC50,"IGR-1, cell line IGR-1, skin",> 30 µM
same,IC50,"IGR-37, cell line IGR-37, skin",24.3 µM
same,IC50,"IGROV-1, IGROV1 cells",> 30 µM
same,IC50,"IGROV-1, cell line IGROV1, ovary",> 30 µM
same,IC50,"IMR-32, IMR-32",24.2 µM
same,EC50,"IMR-32, IMR-32",24.2 µM
same,IC50,"IMR-32, IMR-32 cells",24.2 µM
same,EC50,"IMR-32, IMR-32 cells",24.2 µM
same,IC50,"IPC-298, IPC-298",> 30 µM
same,EC50,"IPC-298, IPC-298",1.04 µM
same,IC50,"IPC-298, cell line IPC-298",> 30 µM
same,IC50,"Ishikawa, Ishikawa (Heraklio) 02 ER- cells",> 30 µM
same,IC50,"Ishikawa, Ishikawa (Heraklio) 02 ER-",> 30 µM
same,IC50,"J82, J82",> 30 µM
same,EC50,"J82, J82",20.1 µM
same,IC50,"JIMT-1, JIMT-1",> 30 µM
same,IC50,"JIMT-1, JIMT-1 cells",> 30 µM
same,IC50,"JJN-3, JJN-3",> 30 µM
same,IC50,"JJN-3, cell line JJN-3",> 30 µM
same,IC50,"JVM-2, JVM-2",21 µM
same,EC50,"JVM-2, JVM-2",21 µM
same,IC50,"JVM-2, JVM-2 cells",21 µM
same,EC50,"JVM-2, JVM-2 cells",21 µM
same,IC50,"JVM-3, JVM-3",> 30 µM
same,IC50,"JVM-3, cell line JVM-3",> 30 µM
same,IC50,"JeKo-1, JeKo-1",8.21 µM
same,EC50,"JeKo-1, JeKo-1",7.64 µM
same,EC50,"JeKo-1, JeKo-1 cells",7.64 µM
same,IC50,Jurkat,16.1 µM
same,IC50,"K562, K-562",> 30 µM
same,EC50,"K562, K-562",9.57 µM
same,IC50,"K562, cell line K-562",> 30 µM
same,IC50,"KARPAS-299, KARPAS-299",13.2 µM

# Reference: publication PMC4476799, “Englerin A Agonizes the TRPC4/C5 Cation Channels to Inhibit Tumor Cell Line Proliferation” (PLoS ONE, 2015)
